# Source: PMC11412489, “Coumarin derivatives as new anti-biofilm agents against Staphylococcus aureus” (PLOS ONE, 2024)
# Like-named read-outs stand apart in the source and are kept apart here.
# Assays:
# Format in all cases: cell-based, Staphylococcus aureus
# S. aureus = assay: Antibacterial activity (bacterial growth inhibition); details: at 100 μg/mL; for inhibition at 100 µg/mL: Staphylococcus aureus, read-out: Antibacterial Activity (% Inhibition ± SEM)
# [1] = tested on: biofilm of S. aureus ATCC 6538; assay: 96-well plate crystal violet assay for biofilm inhibition; details: for inhibition at 3.125 µg/mL / inhibition at 6.25 µg/mL / inhibition at 12.5 µg/mL / inhibition at 25 µg/mL / inhibition at 50 µg/mL / inhibition at 100 µg/mL: Staphylococcus aureus, ATCC6538
# Method: The quantitative determination of biofilm inhibition was carried out by the crystal violet assay on a sterile 96-well plate with slight modifications. The glycerol stock of S. aureus was revived overnight at 37°C at 80 rpm. The overnight culture was then diluted 100 folds in fresh BHI broth, supplemented with 0.25% glucose. The cell density was adjusted to 1×10^7 and 195μL of the cell suspension was added in 96-well plate. […] Following that, the plate was washed with sterile distilled water in order to decant the non-adherent cells, and media. The plate was then dried at 60°C for 1 hour, and 200 μL of 0.1% (w/v) crystal violet was added to stain biofilm for 20 minutes. The plate was washed again, air dried, and dispensed 30% (v/v) acetic acid in each well to dissolve the biofilm. The inhibition of biofilm formation was analyzed by measuring the absorbance at 595 nm using the microplate reader (Multiskan Sky, Thermo Scientific, USA). The percent inhibition of biofilm formation was calculated via the following formula: 100−ƛTreated−ƛBlank/ƛControl−ƛBlank×100 Whereƛ=absorbance
# S. aureus biofilm = assay: Atomic force microscopy analysis of biofilm disruption; details: compared to control S. aureus cells, 24 hours
# Method: The size and structure of disrupted biofilm was analyzed. Briefly, a pure single colony of S. aureus was inoculated in BHI broth and grown for 18–24 hours at 37°C. Following incubation, the cells were diluted in BHI broth, and density was adjusted to 1×10^7 before loading on a sterile silicon chip placed in 24-well plate, then silicon chips were treated with active compounds. The plate was then sealed, and placed in an incubator for 24 hours at 37°C. After incubation, the treated silicon chips were washed with autoclaved distilled water thrice, air dried, and the samples were analyzed by atomic force microscope (Agilent Technologies, USA).
# [2] = tested on: biofilm cells of the S. aureus strain (ATCC 6538); assay: Biofilm analysis by fluorescence microscopy (SYTO-9/PI); details: SYTO-9/PI staining, S. aureus ATCC 6538, 24 hours
# Method: Briefly, 1×10^7 cells were loaded in 96-well plate, and treated with active compounds. Plate was sealed, and incubated for 24 hours at 37°C. Following incubation, plate was washed with sterile distilled water, and cells were stained with […] SYTO-9 and 5 μM PI, for 30 minutes in dark at room temperature. After incubation, the wells were washed again, and air dried. Images were taken, and then visualized by Nikon Eclipse TE2000, USA [23]. Propidium Iodide (PI) staining indicates membrane integrity, as it can only pass through compromised membranes of non-viable cells, giving red fluorescence. On the contrary, Syto-9 can pass through all cells despite of their membrane integrity, and binds to DNA/RNA by emitting green fluorescence.
# [3] = S. aureus ATCC 6538, replicate 1, read-out: % Inhibition 1
# [4] = S. aureus ATCC 6538, replicate 2, read-out: % Inhibition 2
# [5] = S. aureus ATCC 6538, replicate 3, read-out: % Inhibition 3
# [6] = S. aureus ATCC 6538, read-out: Mean % Inhibition
# [7] = 100 µg/mL, S. aureus ATCC 6538, replicate 1, read-out: % Inhibition 1
# [8] = 100 µg/mL, S. aureus ATCC 6538, replicate 2, read-out: % Inhibition 2
# [9] = 100 µg/mL, S. aureus ATCC 6538, replicate 3, read-out: % Inhibition 3
# [10] = 100 µg/mL, S. aureus ATCC 6538, read-out: Mean % Inhibition
# [11] = at 100 μg/mL, biofilm of S. aureus, 24 hours, read-out: Antibiofilm Activity (% Inhibition ± SEM)
# [12] = at 100 μg/mL, biofilm of S. aureus, 24 hours
Structure (SMILES),inhibition at 100 µg/mL (S. aureus) [%],Antibacterial Activity (% Inhibition ± SEM) (S. aureus),"inhibition at 3.125 µg/mL [1, 3] [%]","inhibition at 3.125 µg/mL [1, 4] [%]","inhibition at 3.125 µg/mL [1, 5] [%]","inhibition at 3.125 µg/mL [1, 6] [%]","inhibition at 6.25 µg/mL [1, 3] [%]","inhibition at 6.25 µg/mL [1, 4] [%]","inhibition at 6.25 µg/mL [1, 5] [%]","inhibition at 6.25 µg/mL [1, 6] [%]","inhibition at 12.5 µg/mL [1, 3] [%]","inhibition at 12.5 µg/mL [1, 4] [%]","inhibition at 12.5 µg/mL [1, 5] [%]","inhibition at 12.5 µg/mL [1, 6] [%]","inhibition at 25 µg/mL [1, 3] [%]","inhibition at 25 µg/mL [1, 4] [%]","inhibition at 25 µg/mL [1, 5] [%]","inhibition at 25 µg/mL [1, 6] [%]","inhibition at 50 µg/mL [1, 3] [%]","inhibition at 50 µg/mL [1, 4] [%]",other results
"C/C(=N\Nc1nc(-c2ccc(Br)cc2)cs1)c1cc2ccccc2oc1=O [Compound 10, (E)-3-(1-(2-(4-(4-Bromophenyl)thiazol-2-yl)hydrazono)ethyl)-2H-chromen-2-one]",18 ± 3.73,low antibacterial effect,1.98,1.44,1.54,1.65,5.34,4.99,5.53,5.29,7.56,7.29,7.21,7.35,2.34,2.21,2.09,2.21,39.5,39.8,"inhibition at 50 µg/mL [1, 5]: 39.8%; inhibition at 50 µg/mL [1, 6]: 39.7%; inhibition at 100 µg/mL [1, 7]: 69.4%; inhibition at 100 µg/mL [1, 8]: 69.5%; inhibition at 100 µg/mL [1, 9]: 68.9%; inhibition at 100 µg/mL [1, 10]: 69.3%; inhibition at 100 µg/mL [1, 11]: 69 ± 9.34%; Antibiofilm Activity (% Inhibition ± SEM) [1, 12]: high potential to inhibit the biofilms; Biofilm disruption seen by AFM (S. aureus biofilm): Disrupted biofilm surfaces; Biofilm disruption seen by fluorescence microscopy [2]: Disruption on the surface of biofilm"
"O=c1oc2ccccc2cc1-c1csc(N/N=C/c2cc(Cl)cc(Br)c2)n1 [Compound 17, (E)-3-(2-(2-(3-Bromo-5-chlorobenzylidene)hydrazinyl)thiazol-4-yl)-2H-chromen-2-one]",20 ± 4.64,low antibacterial effect,1.64,1.36,1.84,1.61,3.64,3.52,3.97,3.71,0.03,0.03,0.01,0.0233,15.9,15.1,16.9,15.9,55.1,53,"inhibition at 50 µg/mL [1, 5]: 57%; inhibition at 50 µg/mL [1, 6]: 55%; inhibition at 100 µg/mL [1, 7]: 77.9%; inhibition at 100 µg/mL [1, 8]: 77.6%; inhibition at 100 µg/mL [1, 9]: 82.3%; inhibition at 100 µg/mL [1, 10]: 79.3%; inhibition at 100 µg/mL [1, 11]: 69 ± 1.75%; Antibiofilm Activity (% Inhibition ± SEM) [1, 12]: high potential to inhibit the biofilms; Biofilm disruption seen by AFM (S. aureus biofilm): Disrupted biofilm surfaces; Biofilm disruption seen by fluorescence microscopy [2]: Disruption on the surface of biofilm"
